On the set-up of data set [1]: method as in PMID 9598513, PMID 10389917. The settings on record: potential cancer therapy; cited from earlier work.
In another data set the test system is human breast cancer cell. Details: method as in PMID 10762752. The settings on record: compared with 1,25-di(OH)-vitamin D3; cited from earlier work.
Data set [2] deals with chemically induced cancers. Conditions: cited from earlier work.
On the set-up of data set [3]: method as in PMID 12628523. The settings on record: cited from earlier work.
The subject of data set [4] is Caco-2 cells. The settings on record: human, Caco-2, 24 h, 1 µM.
In data set [5] the test system is Caco-2 cells. Nature of the data set: Intestinal absorption of mixed micellar secosteroid by differentiated Caco-2 monolayers in Transwell plates (remaining, uptake, transport). Conditions: summary of Caco-2 uptake and transport, 24 h. Background: Passage across Caco-2 layers is used to estimate intestinal permeability.
The test system of another data set is rickets. The settings on record: rats; cited from earlier work.
The next data set has as its system Caco-2. Details: method as in PMID 9184144. The settings on record: cholesterol versus sitosterol; cited from earlier work.

The structures appear in SMILES notation. Like-named read-outs stand apart in the source and are kept apart here.

These results are taken from PMC10608315, “Organic Synthesis of New Secosteroids from Fucosterol, Its Intestinal Absorption by Caco-2 Cells, and Simulation of the Biological Activities of Vitamin D” (Marine Drugs, 2023).

Turning to `C=C1C(=CC=C2CCCC3(C)C2CCC3C(C)CCCC(C)(C)O)CC(O)CC1O` (stereo not shown) [1,25-di(OH)-Vitamin D3], in data set [1], the “Side effects in clinical trials” value is “side effects like hypercalcemia [75] and hypercalciuria”.
`C=C1/C(=C\C=C2/CCC[C@]3(C)[C@@H]([C@H](C)CC[C@@H](CC)C(C)C)CC[C@@H]23)C[C@@H](O)C[C@@H]1O` [1-OH-vitamin D5]: in the data set on human breast cancer cell, the “Inhibition of human breast cancer cell growth” value is given as “as effective as 1,25-di(OH)-vitamin D3”. Moreover, the “Effectiveness compared with 1,25-di(OH)-vitamin D3” value in data set [2] is on record as “less effective than 1,25-di(OH)-vitamin D3”. For the same molecule, the “Treatment of chemically induced cancers” value in data set [2] (mice and rats) is given as “effectively treated”. The “Side effects like weight loss and disruptions to calcium levels” value in data set [3] was “markedly fewer side effects”.
With `C=C1CCC(O)CC1=CC=C1CCCC2(C)C1CCC2C(C)CCC(=CC)C(C)C` [Compound 3, (5Z,7E,24E)-(3S)-9,10-seco-5,7,10(19),24(24^1)-stigmastatetraen-3-ol], in the data set on Caco-2 cells [4], the “Concentration of micellar secosteroid remaining on the apical side” value is on record as “significantly higher concentrations than vitamin D3”; the “Intestinal absorption (uptake and transport) ranking” value (from here on “Intestinal absorption”) is recorded as “compound 4 ≥ vitamin D3 ≥ compound 3”.
`C=C(C)C(=CC)CCC(C)C1CCC2C(=CC=C3CC(O)CCC3=C)CCCC21C` [Compound 4, (5Z,7E,24E)-(3S)-9,10-seco-5,7,10(19),24(24^1),25(27)-stigmastapentaen-3-ol]: in the data set with Caco-2 cells [4], the “Concentration of micellar secosteroid remaining on the apical side” value was “significantly higher concentrations than vitamin D3”; the “Intestinal absorption” value was “compound 4 ≥ vitamin D3 ≥ compound 3”; the “Secosteroid transported from the monolayer into the basolateral medium” value is “No significant deviation was observed between vitamin D3 and compound 4”.
For the molecule `C=C1CC[C@H](O)C/C1=C/C=C1\CCC[C@]2(C)[C@@H]([C@H](C)CCCC(C)C)CC[C@@H]12` [Vitamin D3, cholecalciferol], the “Intestinal absorption” value with Caco-2 cells [5] is “compound 4 ≥ vitamin D3 ≥ compound 3”.
Regarding `C=C1CCC(O)C/C1=C/C=C1\CCCC2(C)C1CCC2C(C)CCC(CC)C(C)C` (stereo not shown) [Vitamin D5], in the data set on rickets, the Anti-rickets activity entry is listed as “very low anti-rickets activity”.
On to `CC(C)CCC[C@@H](C)[C@H]1CC[C@H]2[C@@H]3CC=C4C[C@@H](O)CC[C@]4(C)[C@H]3CC[C@]12C` [cholesterol], for which the “Uptake and transport by Caco-2” value in the data set with Caco-2 is “higher for cholesterol than for sitosterol”.
